Laboratory results from patent publication US12655380B2, “Fluidic device” (UNIVERSITY PUBLIC CORPORATION OSAKA, priority 2019, dated 2026).

Test system: BBB model (human cerebrovascular endothelial cells, pericytes, astrocytes)
Assay: Barrier Function Evaluation Experiment 2: passage of the fluorescent dye through the BBB model in the fluidic device
Type: in vitro ADME
Conditions: 200 μM Lucifer Yellow in first flow path; after 5 minutes (300 seconds) flow; measured in the neuron cell culture module in the second accommodation section, behind the BBB model; FIG. 25(b)/FIG. 26
Protocol: Specifically, a cubic polycarbonate three-dimensional frame having a side length of 5 mm was prepared, and a 1.5% agarose gel was poured into an opening of the three-dimensional frame and gelled to form a film-shaped window from the resulting hydrogel. The window was formed on each of five faces of the three-dimensional frame as described above. Thereafter, a clump of neurons differentiated from human brain-derived neural stem cells and Matrigel (registered trademark) being an un-gelled culture gel were injected into a cubic space within the three-dimensional frame, and the culture gel was gelled. Then, a hydrogel window was formed on a remaining face of the three-dimensional frame. Through the above, the cell culture module including neurons was produced. […]
An experiment was conducted for evaluation of the barrier function of the BBB model. […] After the fluorescent dye solution and the medium had flowed for 5 minutes (300 seconds), a fluorescence image and a phase-contrast image of the inside of the cell culture module were captured through the fluidic device.
FIGS. 24(a) and 24(b) each show a fluorescence image (left) of the inside of the cell culture module including neurons used in the control experiment, and an image (right) obtained by superimposing the fluorescence image and a phase-contrast image on one another. […]

relative luminance value on dashed line x-x' (corresponds to Lucifer Yellow concentration): approximately 0.1
Substance: Lucifer Yellow [fluorescent dye]
